Experiment in all cases: Cell viability MTS assay
What all share (type): cell-based, human
(In general: Tetrazolium dyes change colour on reduction, which living cells bring about.)

In one assay the test system is PC-3. The note with it: Homo sapiens, PC-3, 72 hours with compound. The protocol: (§1) Cell viability was determined by measuring the activity of dehydrogenase enzymes in metabolically active cells using a tetrazolium compound, MTS. The assay was performed as described in Promega Technical Bulletin No. 169 (CellTiter 96 Aqueous Non-Radioactive Cell Proliferation Assay). Thirteen human cancer cell lines were assayed (see, e.g., Table 1). Cells were maintained at 37° C., 5% CO2. Adherent cells were maintained DMEM media (4.5 g/L glucose) supplemented with 15% heat-inactivated FBS, 10 mM L-glutamine, and 10 mM Hepes pH 7.5. Suspension cells were maintained in RPMI 1640 media, supplemented with 10% heat-inactivated FBS and 10 mM Hepes pH 7.5. Briefly, cells were seeded in 96-well plates as set forth in Table 1 and incubated for 16-24 hours. Candidate compounds were serially diluted in DMSO, further diluted in cell culture media, and then added to cells (final DMSO concentration of 0.33%). Cells were incubated in the presence of candidate compound for 72 hours. MTS stock solution (MTS 2 gm/L, PMS […] in PBS) was added to the cells (final concentration MTS […] and PMS 7.67 mg/L) and incubated for 4 hours. SDS was added to a final concentration of 1.4% and absorbance at 490 nm was measured within two hours using a platereader. The IC50 was defined as the concentration of compound that results in a 50% reduction in the number of viable cells as compwered to control wells treated with DMSO only (0.33%) and was calculated using non-linear regression analyswas. IC50 values were given in Table 2 for the compounds listed.

Another assay concerns MDA-MB-231. How it is done:
as §1

In another assay the test system is SK-MEL-28. The note with it: Homo sapiens, SK-MEL-28, 72 hours with compound. The protocol: as §1
The test system of the next assay is MCF7. The note with it: Homo sapiens, MCF7, 72 hours with compound. The protocol:
as §1

For a further assay, the system named is SKOV-3. The settings on record: Homo sapiens, SK-OV-3, 72 hours with compound. How it is done:
as §1

Another assay relates to A549. How it is done:
as §1

Another assay has as its system HCT-116. The protocol: as §1
The test system of another assay is K562. The protocol: as §1
A further assay has as its system HT29. The protocol: as §1
The next assay relates to DU-145. The protocol:
as §1

The subject of a further assay is NCI-H446. How it is done: as §1
The subject of a further assay is NCI-H82. How it is done:
as §1

For another assay, the system named is NCI-H69. The protocol: as §1
The mark [1] stands for this setting: Homo sapiens, MDA-MB-231, 72 hours with compound.
[2] abbreviates: Homo sapiens, A549, 72 hours with compound.
Where [3] appears, read: Homo sapiens, HCT-116, 72 hours with compound.
The mark [4] stands for this setting: Homo sapiens, K562, 72 hours with compound.
Where [5] appears, read: Homo sapiens, HT-29, 72 hours with compound.
Where [6] appears, read: Homo sapiens, DU-145, 72 hours with compound.
[7] abbreviates: Homo sapiens, NCI-H446, 72 hours with compound.
Setting [8] is: Homo sapiens, NCI-H82, 72 hours with compound.

Broadly, the IC50 is the concentration that gives 50% inhibition.

For `O=C1NC(=O)C(c2cn3c4c(cccc24)CCC3)=C1c1c(Cl)cccc1Cl` [Example 20, 3-(5,6-Dihydro-4H-pyrrolo[3,2,1-ij]quinolin-1-yl)-4-(2,6-dichloro-phenyl)-pyrrole-2,5-dione], the IC50 with PC-3 is 82.7 µM; in the assay on MDA-MB-231 (setting [1]), 50.3 µM; with SK-MEL-28, 74 µM; with MCF7, more than 100 µM; with SKOV-3, 23.8 µM.
For `O=C1NC(=O)[C@@H](c2cn3c4c(cccc24)CCC3)[C@H]1c1cccc(Cl)c1` (racemic) [Example 55, (±)-Cis-3-(5,6-dihydro-4H-pyrrolo[3,2,1-ij]quinolin-1yl)-4-(3-chlorophenyl)-pyrrolidine-2,5-dione], the IC50 with A549 (setting [2]) was 13.1 µM; with PC-3, 12.9 µM; in the assay on MDA-MB-231 (setting [1]), 15.5 µM; in the assay with SK-MEL-28, more than 100 µM; in the assay on HCT-116 (setting [3]), 12.1 µM; with K562 (setting [4]) it was 3.47 µM. Further, the IC50 in the assay on HT29 (setting [5]) is 13.1 µM; with MCF7, more than 100 µM; in the assay on DU-145 (setting [6]) it was 35.7 µM; with SKOV-3, 11.6 µM.
For the molecule `O=C1NC(=O)[C@@H](c2cn3c4c(cccc24)CCC3)[C@H]1c1ccc(F)cc1Cl` (racemic) [Example 54, (±)-Cis-3-(5,6-dihydro-4H-pyrrolo[3,2,1-ij]quinolin-1yl)-4-(2-chloro-4-fluoro-phenyl)-pyrrolidine-2,5-dione], the IC50 with A549 (setting [2]) came out at 22.1 µM; in the assay with PC-3 it was 11.5 µM; in the assay with SK-MEL-28, 25.2 µM; with HCT-116 (setting [3]), 7.63 µM; in the assay on K562 (setting [4]), 3.37 µM; in the assay with HT29 (setting [5]), 8.78 µM. Besides, the IC50 in the assay with MCF7 was more than 100 µM; with DU-145 (setting [6]) it was 21.1 µM; with SKOV-3, 6.88 µM.
With `O=C1NC(=O)C(c2cn3c4c(cccc24)CCC3)=C1c1cccc2ccccc12` [Example 19, 3-(5,6-Dihydro-4H-pyrrolo[3,2,1-ij]quinolin-1-yl)-4-naphthalene-1-yl-pyrrole-2,5-dione], the IC50 with A549 (setting [2]) was 41 µM; in the assay with PC-3 it was 96.2 µM; in the assay on MDA-MB-231 (setting [1]), 70.5 µM; in the assay on SK-MEL-28, 39.6 µM; in the assay on HCT-116 (setting [3]), 26.2 µM; in the assay with K562 (setting [4]) it was 14 µM. Moreover, the IC50 is 46.8 µM with HT29 (setting [5]), more than 100 µM with MCF7, more than 100 µM with DU-145 (setting [6]) and 36.2 µM in the assay on SKOV-3.
Regarding `Cn1cc([C@@H]2C(=O)NC(=O)[C@H]2c2cn3c4c(cccc24)CCC3)c2ccccc21` (racemic) [Example 51, (±)-Trans-3-(5,6-dihydro-4H-pyrrolo[3,2,1-ij]quinolin-1yl)-4-(N-methylindol-3-yl)pyrrolidine-2,5-dione], the IC50 in the assay with NCI-H446 (setting [7]) was 65.7 µM; with MDA-MB-231 (setting [1]), 67.3 µM; with NCI-H82 (setting [8]), 37.7 µM.
On to `CN1C(=O)[C@H](c2cn(C)c3ccccc23)[C@H](c2cn3c4c(cccc24)CCC3)C1=O` (racemic) [Example 61, (±)-cis-3-(5,6-dihydro-4H-pyrrolo[3,2,1-ij]quinolin-1-yl)-4(1-methylindol-3-yl)-1-methylpyrrolidine-2,5-dione], for which the IC50 in the assay on A549 (setting [2]) was 78.9 µM; with PC-3 it was more than 100 µM; with MDA-MB-231 (setting [1]), more than 100 µM; in the assay on SK-MEL-28, more than 100 µM; in the assay with HCT-116 (setting [3]), 96.2 µM; in the assay with K562 (setting [4]), 18.7 µM. The IC50 in the assay with HT29 (setting [5]) was more than 100 µM; in the assay on MCF7 it was more than 100 µM; with DU-145 (setting [6]), more than 100 µM; with SKOV-3, 37.6 µM.
Consider `O=C1NC(=O)C(c2cn3c4c(cccc24)CCC3)=C1c1ccccc1Br` [Example 21, 3-(5,6-Dihydro-4H-pyrrolo[3,2,1-ij]quinolin-1-yl)-4-(2-bromo-phenyl)-pyrrole-2,5-dione], for which the 50% inhibitory concentration (IC50) is 28.6 µM in the assay with A549 (setting [2]); 22.2 µM in the assay with PC-3; 30 µM in the assay on MDA-MB-231 (setting [1]); more than 100 µM in the assay with SK-MEL-28; 5.44 µM in the assay on HCT-116 (setting [3]); 6.42 µM in the assay on K562 (setting [4]). Moreover, the IC50 in the assay with HT29 (setting [5]) was 56.8 µM; with MCF7 it was more than 100 µM; in the assay on DU-145 (setting [6]) it was 21.8 µM; with SKOV-3, 30.2 µM.
For the molecule “3-(5,6-Dihydro-4H-pyrrolo[3,2,1-ij]quinolin-1-yl)-4-(2,6-dichloro-phenyl)-pyrrole-2,5-dione [Example 20]”, the IC50 with A549 (72 hours with compound) is 38.8 µM; in the assay with HCT-116 (72 hours with compound) it was 4.96 µM; with K562 (72 hours with compound), 2.47 µM; in the assay with HT29 (72 hours with compound) it was more than 100 µM; with DU-145 (72 hours with compound), 31.1 µM.
Take “(±)-Trans-3-(5,6-dihydro-4H-pyrrolo[3,2,1-ij]quinolin-1yl)-4-(N-methylindol-3-yl)pyrrolidine-2,5-dione [Example 51]”: the IC50 in the assay on NCI-H69 (72 hours with compound) is 37.7 µM; in the assay with HT29 (72 hours with compound), 66.8 µM.
For `O=C1NC(=O)[C@@H](c2c[nH]c3ccccc23)[C@H]1c1cn2c3c(cccc13)CCC2` [3(S),4(R)-3-(5,6-dihydro-4H-pyrrolo[3,2,1-ij]quinolin-1-yl)-4(1H-indol-3-yl)pyrrolidine-2,5-dione], the IC50 in the assay with NCI-H446 (72 hours with compound) amounted to 1.42 µM; with NCI-H69 (72 hours with compound) it was 2.07 µM; in the assay on MDA-MB-231 (72 hours with compound) it was 5.17 µM; in the assay with HT29 (72 hours with compound), 9.71 µM; in the assay on NCI-H82 (72 hours with compound) it was 1.77 µM.
The like results for `O=C1NC(=O)[C@@H](c2cn3c4c(cccc24)CCC3)[C@H]1c1c[nH]c2ccccc12` [3(R),4(S)-3-(5,6-dihydro-4H-pyrrolo[3,2,1-ij]quinolin-1-yl)-4(1H-indol-3-yl)pyrrolidine-2,5-dione] were, in that order, 1.27 µM, 1.85 µM, 3.69 µM, 5.5 µM and 1.49 µM.
With `O=C1NC(=O)[C@@H](c2cn3c4c(cccc24)CCC3)[C@@H]1c1ccccc1Cl` (racemic) [Example 50, (±)-Trans-3-(5,6-dihydro-4H-pyrrolo[3,2,1-ij]quinolin-1yl)-4-(2-chlorophenyl)-pyrrolidine-2,5-dione], the IC50 in the assay with NCI-H446 (setting [7]) is 4.22 µM; in the assay with NCI-H69 (Homo sapiens, NCI-H69, 72 hours with compound) it was 5.41 µM; with MDA-MB-231 (setting [1]) it was 4.56 µM; with HT29 (setting [5]), 8.51 µM; with NCI-H82 (setting [8]), 4.65 µM.
Turning to `COc1ccc(C2=C(c3cn4c5c(cccc35)CCC4)C(=O)NC2=O)cc1` [Example 10, 3-(5,6-Dihydro-4H-pyrrolo[3,2,1-ij]quinolin-1-yl)-4(4-methoxy-phenyl)-pyrrole-2,5-dione], the IC50 in the assay with MDA-MB-231 (setting [1]) and in the assay with HT29 (setting [5]) was more than 100 µM throughout.
For `CC(N)C(=O)OCN1C(=O)[C@@H](c2c[nH]c3ccccc23)[C@H](c2cn3c4c(cccc24)CCC3)C1=O` (mixture of isomers) [Example 57, (±)-trans-2-Amino-propionic acid-3-(5,6-dihydro-4H-pyrrolo[3,2,1-ij]quinolin-1-yl)-4-(1H-indol-3-yl)-2,5-dioxo-pyrrolidin-1-yl methyl ester], the IC50 with MDA-MB-231 (72 hours with compound) came to 3.14 µM; with HT29 (72 hours with compound), 2.9 µM.
As for `O=C1NC(=O)[C@@H](c2cn3c4c(cccc24)CCC3)[C@@H]1c1cccs1` (racemic) [Example 47, (±)-Trans-3-(5,6-dihydro-4H-pyrrolo[3,2,1-ij]quinolin-1yl)-4-(2-thiophen-2-yl)pyrrolidine-2,5-dione], the IC50 with NCI-H446 (72 hours with compound) is 9.82 µM; in the assay on NCI-H69 (72 hours with compound) it was 4.45 µM; in the assay with MDA-MB-231 (72 hours with compound), 19.9 µM; in the assay with HT29 (72 hours with compound) it was 18.3 µM; in the assay with NCI-H82 (72 hours with compound) it was 7.25 µM.
`COc1ccc(OC)c([C@H]2C(=O)NC(=O)[C@H]2c2cn3c4c(cccc24)CCC3)c1` (racemic) [Example 53, (±)-Cis-3-(5,6-dihydro-4H-pyrrolo[3,2,1-ij]quinolin-1yl)-4-(2,5-dimethoxyphenyl)-pyrrolidine-2,5-dione]: the IC50 is more than 100 µM in the assay with A549 (setting [2]); more than 100 µM with PC-3; more than 100 µM in the assay on MDA-MB-231 (setting [1]); more than 100 µM in the assay on SK-MEL-28; more than 100 µM with HCT-116 (setting [3]); 36.3 µM with K562 (setting [4]). The IC50 in the assay with HT29 (setting [5]) is more than 100 µM; in the assay on MCF7, more than 100 µM; with DU-145 (setting [6]), more than 100 µM; with SKOV-3, 57.4 µM.

For the origin of these results see patent publication US7713969B2, “Compositions and methods for treatment of cancer” (ArQule, Inc., priority 2005, dated 2010).
